Data: patent publication US6492417B1, “11-deoxy-16-fluoro-PGF2α analogs as FP receptor antagonists” (Alcon Manufacturing, Ltd., priority 1997, dated 2002)

Columns and labels:
[1] = target: T1, FP receptor (Rattus norvegicus, UniProt P43118); assay: Schild analysis: antagonism of fluprostenol-induced [3H]IPs production in A7r5 cells (fixed antagonist, varied agonist); format: cell-based; settings: for Kb (potency as antagonist of the FP receptor) / Kb: Schild analysis; for Kb: read-out: Kb (potency as antagonist of the FP receptor)
T1 construct: Two cell lines containing the FP receptor; host or cells: A7r5 rat thoracic aorta smooth muscle cells
T1 sequence (P43118 whole entry): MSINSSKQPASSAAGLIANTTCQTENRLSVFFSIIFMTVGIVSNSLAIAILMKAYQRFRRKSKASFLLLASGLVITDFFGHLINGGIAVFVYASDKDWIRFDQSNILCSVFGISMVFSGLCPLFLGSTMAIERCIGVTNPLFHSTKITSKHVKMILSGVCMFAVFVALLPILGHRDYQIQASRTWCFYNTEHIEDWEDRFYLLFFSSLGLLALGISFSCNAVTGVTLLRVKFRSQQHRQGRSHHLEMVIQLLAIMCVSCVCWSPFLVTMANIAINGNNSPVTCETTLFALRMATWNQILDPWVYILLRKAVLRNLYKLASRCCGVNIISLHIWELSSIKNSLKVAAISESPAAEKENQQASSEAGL
Protocol: (§1) Confluent monolayer cultures of cells (in a standard 24-well tissue culture plate) expressing the FP receptor are exposed to [^3H]-myo-inositol (1.5 μCi in a volume of 0.5 ml DMEM culture medium supplemented with 2 mM L-glutamine and 10 μg/ml gentamicin sulfate) in the absence of serum, which causes net incorporation of the radioisotope into the phosphotidylinositol membrane lipids. After 24-32 hrs, the medium with the radioisotope is removed and the cells are rinsed once with DMEM/F-12 medium containing 10 mM LiCl (assay medium). Then 0.5 ml of assay medium is added to each well of cells, followed by addition of varying concentrations of an FP receptor agonist (or other test compound). Cells are exposed to the test agent for 30-120 min in a humidified incubator (95% air/5% CO2), maintained at 37° C. Then the assay medium is removed and 1 ml of 0.1 M formic acid is added to the cell monolayer to inactivate the phospholipase C and to the radiolabelled products into the assay medium. The presence of LiCl during the agonist stimulation period inhibits phosphatases and permits the accumulation of radiolabelled inositol phosphates (IPs) which is measured by ion exchange chromatography.
The agonist-dependent production of IPs, which reflects the degree of receptor activation, is quantitatively measured for each well of cells in the 24-well plate by separating the negatively charged radiolabelled IPs from other minor radiolabelled species and free [^3H]-myo-inositol by anion exchange chromatography. This is accomplished by adding 0.9 ml of the cell lysate obtained as described above to a column packed with 1 ml of AG 1-X8 anion exchange resin in the formate form. The elution and separation of the radiolabelled IPs from the column consists of sequential additions to the column of: 1) 10 ml of water; 2) 8 ml of 50 mM ammonium formate; and 3) 4 ml of 1.2 M ammonium formate solution containing 0.1 M formic acid. The first two washes are discarded, and the third is collected in a scintillation vial, to which is added 15 ml of a water-accepting scintillation fluid. These samples, i.e., the radiolabelled IPs formed by the cells in response to stimulation by an FP prostaglandin receptor agonist or other test agent, is then measured by scintillation spectrometry on a beta-counter.
The dependence of the level of the [^3H]IPs production on agonist concentration is analyzed by standard pharmacological methods to determine the potency (EC50 value) and efficacy (maximum response; Emax) of the FP receptor agonist relative to a standard FP receptor agonist such as fluprostenol. […] The agonist stimulation is then continued for the standard time (30-120 min), after which the procedure for quenching the reaction, separating the [^3H]IPs, and anion exchange chromatography is identical to the procedure described above. A compound is considered to be an antagonist in this protocol if it inhibits the agonist-stimulated [^3H]IPs production relative to the production measured in the control experiment (performed in parallel), in which the solvent is substituted for the antagonist.
Two different antagonist protocols are employed: 1) the antagonist concentration is varied while holding the agonist concentration fixed at a concentration approximately 10 times the agonist EC50 value and 2) the antagonist concentration is fixed in a given experiment, with the agonist concentration varied, and several such experiments, each with a different, fixed antagonist concentration, are performed. […] Overall, the Ki and Kb values are synonymous and represent the antagonist potency of the antagonist at equilibrium.

[2] = target: T1, FP receptor; assay: Concentration-dependent inhibition of fluprostenol-stimulated [3H]IPs production in A7r5 cells (varied antagonist, fixed agonist); format: cell-based; settings: fluprostenol fixed at approximately 10 times its EC50, n=3, read-out: Ki (antagonist potency by method of FIG. 2)
Protocol: as §1, with “Then the assay medium is removed and 1 ml of 0.1 M formic acid is added to the cell monolayer to inactivate the phospholipase C and to the radiolabelled products into the assay medium.” left out
(§2) The agonist-dependent production of IPs, which reflects the degree of receptor activation, is quantitatively measured for each well of cells in the 24-well plate by separating the negatively charged radiolabelled IPs from other minor radiolabelled species and free [^3H]-myo-inositol by anion exchange chromatography. […]

[3] = target: T1, FP receptor; assay: Agonist stimulation of [3H]IPs production in A7r5 cells; format: cell-based
Protocol: as §1, with “Then the assay medium is removed and 1 ml of 0.1 M formic acid is added to the cell monolayer to inactivate the phospholipase C and to the radiolabelled products into the assay medium.” left out
as §2

[4] = system: FP receptor; assay: Schild analysis: antagonism of agonist-stimulated [3H]IPs production, data from 3T3 and A7r5 cells; format: cell-based, mouse and rat; settings: n=9 experiments using 3T3 and A7r5 cells; read-out: Kb (antagonist potency by Schild analysis)
Protocol: as §1, with “Then the assay medium is removed and 1 ml of 0.1 M formic acid is added to the cell monolayer to inactivate the phospholipase C and to the radiolabelled products into the assay medium.” left out
as §2

[5] = target: FP prostaglandin receptor (Homo sapiens, UniProt P43088); assay: Selectivity for FP prostaglandin receptor compared to other classes of prostaglandin receptors
Chain of FP prostaglandin receptor (P43088 whole entry): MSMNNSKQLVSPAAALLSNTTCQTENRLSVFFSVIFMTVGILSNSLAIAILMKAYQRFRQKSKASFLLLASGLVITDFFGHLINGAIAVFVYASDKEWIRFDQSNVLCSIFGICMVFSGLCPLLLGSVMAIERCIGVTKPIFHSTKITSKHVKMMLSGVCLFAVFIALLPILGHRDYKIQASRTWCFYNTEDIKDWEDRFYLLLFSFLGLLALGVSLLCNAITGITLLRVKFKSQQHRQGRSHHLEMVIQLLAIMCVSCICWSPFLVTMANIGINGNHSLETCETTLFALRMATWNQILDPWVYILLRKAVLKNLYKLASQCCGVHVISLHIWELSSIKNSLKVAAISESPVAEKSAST

CCCCC[C@H](O)/C=C/[C@@H]1[C@@H](C/C=C\CCCCN(C)C)[C@@H](O)C[C@H]1O [PGF2α dimethyl amine]
Kb (potency as antagonist of the FP receptor) ([1]; A7r5 cells): Inactive

CCCCC[C@H](O)/C=C/[C@@H]1[C@@H](C/C=C\CCCC(=O)N(C)C)[C@@H](O)C[C@H]1O [PGF2α dimethyl amide]
Kb (potency as antagonist of the FP receptor) ([1]; A7r5 cells): Inactive

CCCCNC(=O)NS(=O)(=O)c1ccc(C)cc1 [Tolbutamide]
Kb (potency as antagonist of the FP receptor) ([1]; A7r5 cells): Inactive | Kb (potency as antagonist of the FP receptor) ([1]; A7r5 cells, listed as tolbutamide): inactive

COc1ccc(Cl)cc1C(=O)NCCc1ccc(S(=O)(=O)NC(=O)NC2CCCCC2)cc1 [Glibenclamide]
Kb ([1]; A7r5 cells): 160000 nM

CCCCC(F)[C@H](O)/C=C/[C@H]1CC[C@H](O)[C@@H]1C/C=C\CCCC(=O)O (some centres unmarked) [Compound II]
Ki [2]: 324 ± 49 nM | Agonist classification (maximum effect relative to fluprostenol) [3]: partial agonist | Kb ([1]; A7r5 cells): 132 nM | Type of antagonism (shift of fluprostenol dose-response curves) ([1]; A7r5 cells, maximal effects of fluprostenol unaltered, potency reduced): competitive antagonist | Fold higher potency as FP receptor antagonist than phloretin ([1]; from Table 1 Kb values): greater than 39 fold | Kb [4]: 132 ± 22 nM | Selectivity for the FP prostaglandin receptor compared to other classes of prostaglandin receptors [5]: relatively good selectivity

O=C(O)CCC/C=C\C[C@@H]1[C@@H](/C=C/[C@@H](O)COc2cccc(C(F)(F)F)c2)[C@H](O)C[C@@H]1O (racemic) [fluprostenol]
Agonist classification (maximum effect relative to fluprostenol) [3]: full agonist

O=C(CCc1ccc(O)cc1)c1c(O)cc(O)cc1O [Phloretin]
Kb ([1]; A7r5 cells): 5200 nM
